How the values were obtained:
[1] = burn patients, intravenous; cited from earlier work
[2] = gut dysbiosis induced with lectin-containing raw red kidney beans (RRKB); type: in vivo; settings: by inducing heat shock factor 70
[3] = tested on: sulfate reducing bacteria (SRB); assay: SRB growth and hydrogen sulfide production with MgO; type: cell-based
Procedure: Total counts were obtained and represented as cells per ml. To account for the heavy right skew of the response variable, the analysis was conducted using a shifted log-transformation of the data and 90% confidence intervals were constructed using Cox's method. […] 90% confidence intervals were constructed using a parametric Bootstrap procedure based on a zero-inflated log-normal model where the parameters were estimated using maximum likelihood. The relationship between MgO dose level and the response (SRB Growth and H2S Concentration) was assessed with an F test based on a simple linear model. Data is presented as Mean±SEM. In this second in-vitro experiment, bacteria was grown with varying doses of MgO (0.5-2.0 mg/ml) in liquid media at 37° for 24 hours (n=3). Total counts were obtained and represented as cells per ml (FIG. 2A). To account for the heavy right skew of the response variable, the analysis was conducted using a shifted log-transformation of the data and 90% confidence intervals were constructed using Cox's method. Hydrogen sulfide production of SRB grown for 24 hours with varying concentrations of MgO as represented as parts per billion (ppb) (FIG. 2B). […] The relationship between MgO dose level and the response (SRB Growth and H2S Concentration) was assessed with an F test based on a simple linear model Data is presented as Mean±SEM.

## NC(=O)CC[C@H](N)C(=O)O [glutamine]
[1]
  endotoxemia and increased intestinal permeability: reversed
[2]
  reversal of leaky gut and microbial translocation to the liver: able to reverse these effects

## [Mg] [magnesium (Mg), magnesium]
[3]
  protection of the intestinal barrier by suppressing SRB and blocking production of hydrogen sulfide: effective in protecting the intestinal barrier

## [O]=[Mg] [magnesium oxide]
[3]
  reversal of SRB effects (increased intestinal permeability, SRB proliferation, hydrogen sulfide production): could be reversed

— US20250025495A1, “Diagnosis and Treatment of Metabolic Syndrome with Magnesium Compositions” (priority 2023, published 2025)
